Experimental data as given in paper PMC9964268, “A Novel, Highly Potent NADPH-Dependent Cytochrome P450 Reductase from Waste Liza klunzingeri Liver” (Marine Drugs, 2023).

Tested on: T1, LkCPR; NADPH-dependent cytochrome P450 reductase from Liza klunzingeri liver
T1 construct: gene POR; native, purified from liver microsomes (detergent-solubilised; DEAE-Sepharose twice, 2',5'-ADP Sepharose 4B); about 75 kDa, monomer
Test: cytochrome c reduction at […] nm, Michaelis-Menten fit
Type: biochemical, Planiliza klunzingeri
Settings: co-substrate cytochrome c at saturation (50 µM); potassium phosphate pH 7.5; room temperature; apparent Km

Km: 7.26 ± 0.2 µM
SMILES: NC(=O)C1=CN([C@@H]2O[C@H](COP(=O)(O)OP(=O)(O)OC[C@H]3O[C@@H](n4cnc5c(N)ncnc54)[C@H](OP(=O)(O)O)[C@@H]3O)[C@@H](O)[C@H]2O)C=CC1 [NADPH]
